Data as given in article PMC2867451 (Journal of medicinal chemistry, 2010).
Like-named read-outs stand apart in the source and are kept apart here.

Key:
[1] = tested on: maximal electroshock seizure (MES); test: maximal electroshock seizure; format: in vivo, rat; conditions: for MES, ED50: rat, po
behavioral toxicity [2] = test: behavioral toxicity, rat; conditions: for PI: protective index TD50/ED50; for behavioral toxicity observed: rat (po), 500 mg/kg
[3] = rotorod test for neurological impairment, mice; format: in vivo; conditions: male, Carworth Farms No. 1, mouse, in vivo, ip
[4] = tested on: psychomotor 6 Hz (32 mA) seizure; conditions: mice, ip; cited from earlier work
[5] = tested on: hippocampal kindled seizure; conditions: rat; similar screening; cited from earlier work
[6] = tested on: formalin-induced pain response; conditions: 16 mg/kg; cited from earlier work
[7] = tested on: maximal electroshock seizure (MES); test: maximal electroshock seizure; format: in vivo, mice; conditions: for duration of action in the MES model: mice (ip) and rat (po); for ED50: Mus musculus, ip, read-out: MES, ED50
behavioral toxicity, rat = conditions: male, Sprague-Dawley, rat, in vivo, po
[8] = tested on: maximal electroshock seizure (MES); conditions: mice, ip; cited from earlier work
[9] = tested on: maximal electroshock seizure (MES); conditions: rat, po; cited from earlier work
[10] = tested on: subcutaneous Metrazol (scMet) seizure; test: subcutaneous Metrazol; format: in vivo, mice; conditions: Mus musculus, ip, read-out: scMet ED50
behavioral toxicity [11] = conditions: rat, po; TD50/ED50; cited from earlier work
[12] = tested on: formalin-induced pain response; test: formalin test, biphasic pain model, mice; format: in vivo; conditions: 15 mg/kg; mouse, ip
[13] = tested on: neurological impairment (rotorod test); test: rotorod test for neurological impairment, mice; format: in vivo; conditions: mice, ip; rotorod test
[14] = tested on: neurological impairment (rotorod test); conditions: mice, ip; TD50/ED50; cited from earlier work

**Q.** Which “MES, ED50” value [1] does the source give for `CC(=O)NC(C(=O)NCc1ccc(OCc2cccc(F)c2)cc1)c1ccccn1` (racemic) [(R,S)-9, N-4′-((3″-Fluoro)benzyloxy)benzyl 2-Acetamido-2-(pyridin-2-yl)acetamide] here?
**A.** >30 [4] mg/kg

**Q.** And the “Tox, TD50” value (behavioral toxicity [2]; rat, po, behavioral toxicity)?
**A.** >30 [4] mg/kg

**Q.** For `COC[C@@H](NC(C)=O)C(=O)NCc1ccc(COc2cccc(F)c2)cc1` [(R)-16, (R)-N-4′-(((3″-Fluoro)phenoxy)methyl)benzyl 2-Acetamido-3-methoxypropionamide], which PI (behavioral toxicity [2]; rat, po) is on record?
**A.** >21

**Q.** With `CC(=O)N[C@@H](C)C(=O)NCc1ccc(OCc2cccc(F)c2)cc1` [(S)-6, (S)-N-4′-((3″-Fluoro)benzyloxy)benzyl 2-Acetamidopropionamide] as the compound, how does the TD50 [3] read?
**A.** > 300 mg/kg

**Q.** What does the source list for `COC[C@@H](NC(C)=O)C(=O)NCc1ccccc1` [(R)-3, Lacosamide]?
**A.** 6 Hz (32 mA) ED50 [4]: 10 mg/kg; hippocampal kindled seizure test ED50 [5]: 14 mg/kg; reduction in pain, formalin model [6]: comparable reduction in pain was observed only in the late phase

**Q.** With `COC[C@@H](NC(C)=O)C(=O)NCc1ccc(C#Cc2cccc(F)c2)cc1` [(R)-15, (R)-N-4′-(((3″-Fluoro)phenyl)ethynyl)benzyl 2-Acetamido-3-methoxypropionamide] as the compound, how does the “duration of action in the MES model” value [7] read?
**A.** extended duration of action

**Q.** And the “duration of seizure protection” value ([1]; MES test, rat (po))?
**A.** extended for the entire 4 h testing period

**Q.** And the “MES, ED50” value [1]?
**A.** 1.4 to 2.4 mg/kg

**Q.** For `COCC(NCc1ccc(OCc2cccc(F)c2)cc1)C(N)=O` (racemic) [(R,S)-74, 2-(4′-((3″-Fluoro)benzyloxy)benzyl)amino-3-methoxypropionamide], which ED50 [7] is on record?
**A.** 30 to 100 mg/kg

**Q.** With `COC[C@@H](NC(C)=O)C(=O)NCc1ccc(OCc2ccccc2)cc1` [(R)-20, (R)-N-4′-(Benzyloxy)benzyl 2-N-Acetamido-3-methoxypropionamide] as the compound, how does the ED50 [7] read?
**A.** < 3 mg/kg

**Q.** What about the TD50 (behavioral toxicity, rat) of the same compound?
**A.** > 10 mg/kg

**Q.** With `C[C@H](NCc1ccc(OCc2cccc(F)c2)cc1)C(N)=O` [(S)-4, Safinamide] as the compound, how does the “MES, ED50” value [8] read?
**A.** 8.0 (7.0–9.1) mg/kg

**Q.** Which “MES, ED50” value [9] does the source give for `COC[C@@H](NC(C)=O)C(=O)NCc1ccc(-c2ccccc2)cc1` [(R)-73, (R)-N-(biphenyl-4-yl)methyl 2-acetamido-3-methoxypropionamide] here?
**A.** 2.0 mg/kg

**Q.** With `NC(=O)C(NCc1ccc(OCc2cccc(F)c2)cc1)c1ccco1.O=C(O)C(=O)O` (racemic) [(R,S)-75, 2-(4′-((3″-Fluoro)benzyloxy)benzyl)amino-2-(furan-2-yl)acetamide Oxalate] as the compound, how does the ED50 [7] read?
**A.** 10 to 30 mg/kg

**Q.** What about the ED50 [10] of the same compound?
**A.** 100 to 300 mg/kg

**Q.** With `COC[C@@H](NC(C)=O)C(=O)NCc1ccc(OCc2ccccc2F)cc1` [(R)-21, (R)-N-4′-((2″-Fluoro)benzyloxy)benzyl 2-Acetamido-3-methoxypropionamide] as the compound, how does the PI (behavioral toxicity [2]; rat, po) read?
**A.** >45

**Q.** For `CC(=O)N[C@H](C)C(=O)NCc1ccc(OCc2cccc(F)c2)cc1` [(R)-6, (R)-N-4′-((3″-Fluoro)benzyloxy)benzyl 2-Acetamido-propionamide], which “duration of action in the MES model” value [7] is on record?
**A.** extended duration of action

**Q.** What about the PI (behavioral toxicity [2]; rat, po) of the same compound?
**A.** >16

**Q.** Which “MES, ED50” value [8] does the source give for `C[C@@H](NCc1ccc(OCc2cccc(F)c2)cc1)C(N)=O` [(R)-4] here?
**A.** 7.2 (5.9–8.9) mg/kg

**Q.** With `O=C1NC(=O)C(c2ccccc2)(c2ccccc2)N1` [phenytoin] as the compound, how does the PI (behavioral toxicity [11]) read?
**A.** > 100

**Q.** Which “pain responses in the acute and the chronic inflammatory phases” value [12] does the source give for `COC[C@@H](NC(C)=O)C(=O)NCc1ccc(OCc2cccc(F)c2)cc1` [(R)-10, (R)-N-4′-((3″-Fluoro)benzyloxy)benzyl 2-Acetamido-3-methoxypropionamide] here?
**A.** reduced pain responses

**Q.** What about the PI (behavioral toxicity [2]; rat, po) of the same compound?
**A.** >36

**Q.** Which results are given for `COC[C@@H](NC(C)=O)C(=O)NCc1ccc(-c2cccc(F)c2)cc1` [(R)-11, (R)-N-(3″-Fluorobiphenyl-4-yl)methyl 2-Acetamido-3-methoxypropionamide]?
**A.** MES, ED50 [1]: 1.4 to 2.4 mg/kg; behavioral toxicity observed (behavioral toxicity [2]): no evidence of behavioral toxicity

**Q.** Which PI (behavioral toxicity [2]; rat, po) does the source give for `COC[C@@H](NC(C)=O)C(=O)NCc1ccc(OCc2ccc(F)cc2)cc1` [(R)-22, (R)-N-4′-((4″-Fluoro)benzyloxy)benzyl 2-Acetamido-3-methoxypropionamide] here?
**A.** >86

**Q.** With `COC[C@H](NC(C)=O)C(=O)NCc1ccc(OCc2cccc(F)c2)cc1` [(S)-10, (S)-N-4′-((3″-Fluoro)benzyloxy)benzyl 2-Acetamido-3-methoxypropionamide] as the compound, how does the ED50 [7] read?
**A.** > 300 mg/kg

**Q.** And the “Tox, TD50” value [13]?
**A.** >300 mg/kg

**Q.** For `CC(=O)NCC(=O)NCc1ccc(OCc2cccc(F)c2)cc1` [compound 5, N-4′-((3″-Fluoro)benzyloxy)benzyl 2-Acetamidoacetamide], which behavioral toxicity observed (behavioral toxicity [2]) is on record?
**A.** no apparent neurological toxicity

**Q.** What about the PI (behavioral toxicity [2]; rat, po) of the same compound?
**A.** >16

**Q.** For `COC[C@@H](NC(C)=O)C(=O)NCc1ccc(Oc2cccc(F)c2)cc1` [(R)-12, (R)-N-4′-((3″-Fluoro)phenoxy)benzyl 2-N-Acetamido-3-methoxypropionamide], which ED50 [7] is on record?
**A.** < 30 mg/kg

**Q.** With `CCCC(CCC)C(=O)[O-].[Na+]` [valproate] as the compound, how does the PI [14] read?
**A.** 1.6

**Q.** What about the PI (behavioral toxicity [11]) of the same compound?
**A.** 0.6
